# Experimental data taken from BindingDB's records for doi:10.1021/jm00089a021 (Tanabe Seiyaku, 1992).
# Molecular target: Aldose reductase (Oryctolagus cuniculus)
# Assay: Tested in vitro for inhibitory activity against partially purified aldose reductase from male rabbit lens
row,IC50,Structure (SMILES)
1,770 nM,CN1C(=O)Nc2ccc(Cl)cc2[C@]12NC(=O)NC2=O
2,> 10000 nM,CN1C(=O)Nc2ccc(N)cc2C12NC(=O)NC2=O (configuration not stated)
3,220 nM,Cc1ccc2c(c1)NC(=O)N(C)C21NC(=O)NC1=O (configuration not stated)
4,> 10000 nM,O=C1NC(=O)C2(N1)c1ccccc1NC(=O)N2O (configuration not stated)
5,> 10000 nM,CN1C(=O)NC(=O)C12c1ccccc1NC(=O)N2C (configuration not stated)
6,94 nM,CN1C(=O)Nc2cc(Cl)ccc2C12NC(=O)NC2=O (configuration not stated)
7,46 nM,CN1C(=O)Nc2c([N+](=O)[O-])cc(Cl)cc2C12NC(=O)NC2=O (configuration not stated)
8,> 10000 nM,CN1C(=O)Nc2ccccc2C12NC(=S)NC2=O (configuration not stated)
9,73 nM,CN1C(=O)Nc2ccc([N+](=O)[O-])cc2C12NC(=O)NC2=O (configuration not stated)
10,1000 nM,CCN1C(=O)Nc2ccccc2C12NC(=O)NC2=O (configuration not stated)
11,> 10000 nM,CN1C(=O)NC2(C1=O)c1ccccc1NC(=O)N2C (configuration not stated)
12,52 nM,CN1C(=O)Nc2ccc(Br)cc2C12NC(=O)NC2=O (configuration not stated)
13,> 10000 nM,O=C1NC(=O)C2(N1)c1ccccc1NC(=O)N2Cc1ccccc1 (configuration not stated)
14,2000 nM,CN1C(=O)Nc2ccc(OC(=O)c3ccccc3)cc2C12NC(=O)NC2=O (configuration not stated)
15,1400 nM,O=C1NC(=O)C2(N1)NC(=O)Nc1ccccc12 (configuration not stated)
16,400 nM,Cc1cccc2c1C1(NC(=O)NC1=O)N(C)C(=O)N2 (configuration not stated)

row,IC50,Structure (SMILES)
1,30 nM,Cc1cc2c(cc1Cl)C1(NC(=O)NC1=O)N(C)C(=O)N2 (configuration not stated)
2,> 10000 nM,CN1C(=O)N(C)C2(C1=O)c1ccccc1NC(=O)N2C (configuration not stated)
3,1800 nM,CN1C(=O)Nc2cc3c(cc2C12NC(=O)NC2=O)OCO3 (configuration not stated)
4,860 nM,CN1C(=O)Nc2cccc(Cl)c2C12NC(=O)NC2=O (configuration not stated)
5,> 10000 nM,CC(C)N1C(=O)Nc2ccccc2C12NC(=O)NC2=O (configuration not stated)
6,430 nM,CN1C(=O)Nc2cc(N3CCOCC3)c([N+](=O)[O-])cc2C12NC(=O)NC2=O (configuration not stated)
7,4000 nM,NN1C(=O)Nc2ccccc2C12NC(=O)NC2=O (configuration not stated)
8,> 10000 nM,CN1C(=O)Nc2ccccc2C12SC(N)=NC2=O (configuration not stated)
9,22 nM,CN1C(=O)Nc2ccc(Cl)cc2[C@@]12NC(=O)NC2=O
10,> 10000 nM,CCCCN1C(=O)Nc2ccccc2C12NC(=O)NC2=O (configuration not stated)
11,> 10000 nM,CN1C(=O)Nc2ccc(O)cc2C12NC(=O)NC2=O (configuration not stated)
12,56 nM,CN1C(=O)Nc2ccc(Cl)cc2C12NC(=O)NC2=O (configuration not stated)
13,74 nM,CN1C(=O)Nc2cc(Cl)c(Cl)cc2C12NC(=O)NC2=O (configuration not stated)
14,360 nM,COc1ccc2c(c1)NC(=O)N(C)C21NC(=O)NC1=O (configuration not stated)
15,140 nM,CN1C(=O)Nc2c(cc(F)c(F)c2F)C12NC(=O)NC2=O (configuration not stated)

row,Structure (SMILES),IC50
1,CN1C(=O)Nc2cc(Cl)c([N+](=O)[O-])cc2C12NC(=O)NC2=O (configuration not stated),120 nM
